# In US20240360178A1, “MACROCYCLIC IMMUNOMODULATORS” (Bristol-Myers Squibb Company, priority 2021, published 2024):
# Positions of bridges follow the written chain, without caps; N, C: chain ends. Non-standard residues stand in square brackets, D forms with d. Residues, ends and D or L forms follow the SMILES beside them. *: point of attachment. Phe(4-COOH) = N[C@@H](Cc1ccc(C(=O)O)cc1)C(=O)O; Phe(4-CH2NH2) = NCc1ccc(C[C@H](N)C(=O)O)cc1; Bip = N[C@@H](Cc1ccc(-c2ccccc2)cc1)C(=O)O; Phe(3-Me) = Cc1cccc(C[C@H](N)C(=O)O)c1; Val(3-OH) = CC(C)(O)[C@H](N)C(=O)O; NMeF = CN[C@@H](Cc1ccccc1)C(=O)O; hArg = N=C(N)NCCCC[C@H](N)C(=O)O; 3Pal = N[C@@H](Cc1cccnc1)C(=O)O; 4Pal = N[C@@H](Cc1ccncc1)C(=O)O; Cha = N[C@@H](CC1CCCCC1)C(=O)O; Cit = NC(=O)NCCC[C@H](N)C(=O)O; Carboxymethyl = O=C(O)C*; NMeA = CN[C@@H](C)C(=O)O; Orn = NCCC[C@H](N)C(=O)O; Dab = NCC[C@H](N)C(=O)O; Dap = NC[C@H](N)C(=O)O; Sar = CNCC(=O)O
# Biological target: T1, human PD-1 (Jurkat-PD-1 cells) / PE-labeled human PD-L1-Ig (Homo sapiens, UniProt Q15116)
# T1 construct: expressed in transfected cells; host or cells: Jurkat cell line over-expressing human PD-1
# Assay: Jurkat-PD-1 Cell Binding High-Content Screening Assay (CBA); Jurkat hPD1-PDL1 assay
# Settings: Jurkat cell line over-expressing human PD-1; PE-labeled PD-L1-Ig 20 nM final; compound incubated 2 hours at 37° C.; read-out: Jurkat HPD1-PDL1 IC50
# Method: The ability of the compounds of formula (I) to bind to PD-1 was investigated using a Jurkat-PD-1 Cell Binding High-Content Screening Assay.
# Jurkat-PD-1 Cell Binding High-Content Screening Assay (CBA)
# Phycoerythrin (PE) was covalently linked to the Ig epitope tag of human PD-L1-Ig and fluorescently-labeled PD-L1-Ig was used for binding studies with a Jurkat cell line over-expressing human PD-1 (Jurkat-PD-1). Briefly, 8×10^3 Jurkat-hPD-1 cells were seeded into 384 well plates in 20 μL of DMEM supplemented with 10% fetal calf serum. 100 nL of compound was added to cells followed by incubation at 37° C. for 2 hours. Then, 5 μL of PE-labeled PD-L1-Ig (20 nM final), diluted in DMEM supplemented with 10% fetal calf serum. […] Data was collected and processed using a Cell Insight NXT High Content Imager and associated software.
# T1 sequence (Q15116 25-288): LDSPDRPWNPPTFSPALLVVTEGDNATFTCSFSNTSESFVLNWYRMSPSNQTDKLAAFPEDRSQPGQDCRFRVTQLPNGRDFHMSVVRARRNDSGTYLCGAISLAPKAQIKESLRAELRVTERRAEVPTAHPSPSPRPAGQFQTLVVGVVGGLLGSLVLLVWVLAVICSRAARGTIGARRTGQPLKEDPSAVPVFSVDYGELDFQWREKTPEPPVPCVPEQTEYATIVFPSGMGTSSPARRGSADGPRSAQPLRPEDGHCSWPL
row,SMILES,IC50 [nM]
1,Cc1cccc(C[C@@H]2NC(=O)[C@H](CC(=O)O)NC(=O)[C@H](Cc3ccc(O)cc3)NC(=O)[C@H](Cc3ccccc3)NC(=O)CSC[C@@H](C(=O)N[C@@H](C)C(N)=O)NC(=O)[C@H](CO)NC(=O)[C@H](C(C)C)NC(=O)[C@H](CC(C)C)NC(=O)[C@H](CC(N)=O)NC(=O)CN(C)C(=O)[C@H](C)N(C)C(=O)[C@H](C(C)C)NC(=O)[C@H](Cc3ccc(-c4ccccc4)cc3)NC(=O)[C@H](CC(C)C)NC2=O)c1 [Example 1053] ({CH2CO}-FYD[Phe(3-Me)]L[Bip]V[NMeA][Sar]NLVSCA-NH2; thioether N-14),120
2,CC(C)C[C@@H]1NC(=O)[C@H](Cc2c[nH]c3ccccc23)NC(=O)[C@H](CC(=O)O)NC(=O)[C@H](Cc2ccc(O)cc2)NC(=O)[C@H](Cc2ccccc2)NC(=O)CSC[C@@H](C(=O)N[C@@H](C)C(N)=O)NC(=O)[C@H]([C@@H](C)O)NC(=O)[C@H](C(C)C)NC(=O)[C@H](CC(C)C)NC(=O)[C@H](CC(N)=O)NC(=O)[C@H]2CCCN2C(=O)[C@H](CN)NC(=O)[C@H](C(C)C)NC(=O)[C@H](Cc2ccc(-c3ccccc3)cc2)NC1=O [Example 1405] ({CH2CO}-FYDWL[Bip]V[Dap][dP]NLVTCA-NH2; thioether N-14),660
3,CC(C)C[C@@H]1NC(=O)[C@H](CCCNC(=N)N)NC(=O)[C@H](Cc2ccccc2)N(C)C(=O)[C@H](C)N(C)C(=O)[C@H](CCCNC(=N)N)NC(=O)[C@H](Cc2ccc(-c3ccccc3)cc2)NC(=O)[C@H](C(C)C)NC(=O)[C@H](Cc2c[nH]c3ccccc23)NC(=O)[C@H](CC(=O)O)NC(=O)[C@H](Cc2ccc(O)cc2)NC(=O)[C@H](CC(N)=O)NC(=O)CSC[C@@H](C(=O)N[C@@H](C)C(N)=O)NC(=O)[C@H]([C@@H](C)O)NC(=O)[C@H](C(C)C)NC1=O [Example 1318] ({CH2CO}-NYDWV[Bip]R[NMeA][NMeF]RLVTCA-NH2; thioether N-14),380
4,CC(C)C[C@@H]1NC(=O)[C@H](Cc2c[nH]c3ccccc23)NC(=O)[C@H](CC(=O)O)NC(=O)[C@H](Cc2ccc(O)cc2)NC(=O)[C@H](Cc2ccccc2)NC(=O)CSC[C@@H](C(=O)NCC(N)=O)NC(=O)[C@H](CO)NC(=O)[C@H](C(C)C)NC(=O)[C@H](CC(C)C)NC(=O)[C@H](CC(N)=O)NC(=O)[C@H]2CCCN2C(=O)[C@H](CCN)NC(=O)[C@H](C(C)C)NC(=O)[C@H](Cc2ccc(-c3ccccc3)cc2)NC1=O [Example 1413] ({CH2CO}-FYDWL[Bip]V[Dab][dP]NLVSCG-NH2; thioether N-14),90
5,CC(C)C[C@@H]1NC(=O)[C@H](Cc2c[nH]c3ccccc23)NC(=O)[C@H](CC(=O)O)NC(=O)[C@H](Cc2ccc(O)cc2)NC(=O)[C@H](Cc2ccccc2)NC(=O)CSC[C@@H](C(=O)NCC(N)=O)NC(=O)[C@H](CO)NC(=O)[C@H](C(C)C)NC(=O)[C@H](CC(C)C)NC(=O)[C@H](CCCNC(=N)N)NC(=O)CN(C)C(=O)[C@H](C)N(C)C(=O)[C@H](C(C)C)NC(=O)[C@H](Cc2ccc(-c3ccccc3)cc2)NC1=O [Example 1204] ({CH2CO}-FYDWL[Bip]V[NMeA][Sar]RLVSCG-NH2; thioether N-14),400
6,CC(C)C[C@@H]1NC(=O)[C@H](Cc2c[nH]c3ccccc23)NC(=O)[C@H](CC(=O)O)NC(=O)[C@H](Cc2ccc(O)cc2)NC(=O)[C@H](Cc2ccccc2)NC(=O)CSC[C@@H](C(=O)N[C@@H](C)C(N)=O)NC(=O)[C@H](CO)NC(=O)[C@H](C(C)C)NC(=O)[C@H](CC(C)C)NC(=O)[C@H](CCCNC(=N)N)NC(=O)[C@H](Cc2ccccc2)N(C)C(=O)[C@H](C)N(C)C(=O)[C@H](CCCNC(=N)N)NC(=O)[C@H](Cc2ccc(-c3ccccc3)cc2)NC1=O [Example 1078] ({CH2CO}-FYDWL[Bip]R[NMeA][NMeF]RLVSCA-NH2; thioether N-14),220
7,CC(C)C[C@@H]1NC(=O)[C@H](CCCNC(=N)N)NC(=O)[C@H](Cc2ccccc2)N(C)C(=O)[C@H](C)N(C)C(=O)[C@H](CCCN)NC(=O)[C@H](Cc2ccc(-c3ccccc3)cc2)NC(=O)[C@H](C(C)C)NC(=O)[C@H](Cc2c[nH]c3ccccc23)NC(=O)[C@H](CC(=O)O)NC(=O)[C@H](Cc2ccc(O)cc2)NC(=O)[C@H](Cc2ccccc2)NC(=O)CSC[C@@H](C(=O)NCC(N)=O)NC(=O)[C@H](CO)NC(=O)[C@H](C(C)C)NC1=O [Example 1243] ({CH2CO}-FYDWV[Bip][Orn][NMeA][NMeF]RLVSCG-NH2; thioether N-14),60
8,CC(C)C[C@@H]1NC(=O)[C@H](CCCNC(=N)N)NC(=O)[C@H](Cc2ccccc2)N(C)C(=O)[C@H](C)N(C)C(=O)[C@H](CCCNC(=N)N)NC(=O)[C@H](Cc2ccc(-c3ccccc3)cc2)NC(=O)[C@H](C(C)C)NC(=O)[C@H](Cc2c[nH]c3ccccc23)NC(=O)[C@H](CC(=O)O)NC(=O)[C@H](Cc2cnc[nH]2)NC(=O)[C@H](Cc2ccccc2)NC(=O)CSC[C@@H](C(=O)NCC(N)=O)NC(=O)[C@H](CO)NC(=O)[C@H](C(C)C)NC1=O [Example 1249] ({CH2CO}-FHDWV[Bip]R[NMeA][NMeF]RLVSCG-NH2; thioether N-14),270
9,CC(C)C[C@@H]1NC(=O)[C@H](Cc2c[nH]c3ccccc23)NC(=O)[C@H](CC(=O)O)NC(=O)[C@H](Cc2ccc(CN)cc2)NC(=O)[C@H](Cc2ccccc2)NC(=O)CSC[C@@H](C(=O)N[C@@H](C)C(N)=O)NC(=O)[C@H](CO)NC(=O)[C@H](C(C)C)NC(=O)[C@H](CC(C)C)NC(=O)[C@H](CC(N)=O)NC(=O)[C@H]2CCCN2C(=O)[C@H](C)N(C)C(=O)[C@H](C(C)C)NC(=O)[C@H](Cc2ccc(-c3ccccc3)cc2)NC1=O [Example 1040] ({CH2CO}-F[Phe(4-CH2NH2)]DWL[Bip]V[NMeA][dP]NLVSCA-NH2; thioether N-14),70
10,CC(C)C[C@@H]1NC(=O)[C@H](C)NC(=O)[C@H]2CCCN2C(=O)[C@H](C)N(C)C(=O)[C@H](CCC(=O)O)NC(=O)[C@H](Cc2ccc(-c3ccccc3)cc2)NC(=O)[C@H](CC(C)C)NC(=O)[C@H](Cc2c[nH]c3ccccc23)NC(=O)[C@H](CC(=O)O)NC(=O)[C@H](Cc2ccc(C(=O)O)cc2)NC(=O)[C@H](Cc2cccnc2)NC(=O)CSC[C@@H](C(=O)N[C@@H](C)C(N)=O)NC(=O)[C@H](CO)NC(=O)[C@H](C(C)C)NC1=O [Example 1085] ({CH2CO}-[3Pal][Phe(4-COOH)]DWL[Bip]E[NMeA][dP]ALVSCA-NH2; thioether N-14),240
11,CC(C)C[C@@H]1NC(=O)[C@H](Cc2c[nH]c3ccccc23)NC(=O)[C@H](CC(=O)O)NC(=O)[C@H](Cc2ccc(OCC(=O)O)cc2)NC(=O)[C@H](Cc2ccncc2)NC(=O)CSC[C@@H](C(=O)N[C@@H](CCN)C(N)=O)NC(=O)[C@H](CO)NC(=O)[C@H](C(C)(C)O)NC(=O)[C@H](CC2CCCCC2)NC(=O)[C@H](CCN)NC(=O)[C@H]2CCCN2C(=O)[C@H](C)N(C)C(=O)[C@H](CCCNC(N)=O)NC(=O)[C@H](Cc2ccc(-c3ccccc3)cc2)NC1=O [Example 1181] ({CH2CO}-[4Pal]Y(Carboxymethyl)DWL[Bip][Cit][NMeA][dP][Dab][Cha][Val(3-OH)]SC[Dab]-NH2; thioether N-14),100
12,CC(C)C[C@@H]1NC(=O)[C@H](CCCCNC(=N)N)NC(=O)[C@H](Cc2ccccc2)N(C)C(=O)[C@H](C)N(C)C(=O)[C@H](CCCNC(=N)N)NC(=O)[C@H](Cc2ccc(-c3ccccc3)cc2)NC(=O)[C@H](C(C)C)NC(=O)[C@H](Cc2c[nH]c3ccccc23)NC(=O)[C@H](CC(=O)O)NC(=O)[C@H](Cc2ccc(O)cc2)NC(=O)[C@H](Cc2ccccc2)NC(=O)CSC[C@@H](C(=O)NCC(N)=O)NC(=O)[C@H](CO)NC(=O)[C@H](C(C)C)NC1=O [Example 1279] ({CH2CO}-FYDWV[Bip]R[NMeA][NMeF][hArg]LVSCG-NH2; thioether N-14),320
13,CC(C)C[C@@H]1NC(=O)[C@H](Cc2c[nH]c3ccccc23)NC(=O)[C@H](CC(=O)O)NC(=O)[C@H](Cc2ccc(O)cc2)NC(=O)[C@H](Cc2ccccc2)NC(=O)CSC[C@@H](C(=O)N[C@@H](C)C(N)=O)NC(=O)[C@H]([C@@H](C)O)NC(=O)[C@H](C(C)C)NC(=O)[C@H](CC(C)C)NC(=O)[C@H](CCN)NC(=O)[C@H]2CCCN2C(=O)[C@H](C)N(C)C(=O)[C@H](C(C)C)NC(=O)[C@H](Cc2ccc(-c3ccccc3)cc2)NC1=O [Example 1398] ({CH2CO}-FYDWL[Bip]V[NMeA][dP][Dab]LVTCA-NH2; thioether N-14),50
14,CC(C)C[C@@H]1NC(=O)[C@H](CCCNC(=N)N)NC(=O)[C@H](Cc2ccccc2)N(C)C(=O)[C@H](C)N(C)C(=O)[C@H](CCCNC(=N)N)NC(=O)[C@H](Cc2ccc(-c3ccccc3)cc2)NC(=O)[C@H](C(C)C)NC(=O)[C@H](Cc2c[nH]c3ccccc23)NC(=O)[C@H](CC(=O)O)NC(=O)[C@H](Cc2ccc(O)cc2)NC(=O)[C@H](Cc2ccc(O)cc2)NC(=O)CSC[C@@H](C(=O)NCC(N)=O)NC(=O)[C@H](CO)NC(=O)[C@H](C(C)C)NC1=O [Example 1068] ({CH2CO}-YYDWV[Bip]R[NMeA][NMeF]RLVSCG-NH2; thioether N-14),170
15,CC(C)C[C@@H]1NC(=O)[C@H](Cc2c[nH]c3ccccc23)NC(=O)[C@H](CC(=O)O)NC(=O)[C@H](Cc2ccc(O)cc2)NC(=O)[C@H](Cc2ccccc2)NC(=O)CSC[C@@H](C(=O)N[C@@H](C)C(N)=O)NC(=O)[C@H](CO)NC(=O)[C@H](C(C)C)NC(=O)[C@H](CC(C)C)NC(=O)[C@H](CCC(N)=O)NC(=O)[C@H]2CCCN2C(=O)[C@H](C)N(C)C(=O)[C@H](C(C)C)NC(=O)[C@H](Cc2ccc(-c3ccccc3)cc2)NC1=O [Example 1037] ({CH2CO}-FYDWL[Bip]V[NMeA][dP]QLVSCA-NH2; thioether N-14),70
